Data from paper PMC8954547, “Nonpeptidic Z360-Analogs Tagged with Trivalent Radiometals as Anti-CCK2R Cancer Theranostic Agents: A Preclinical Study” (Pharmaceutics, 2022).
Blank lines part the entries; values can stand above or below the compound they belong to.

Legend:
[1] = biological target: T1, human CCK2i4svR splice variant (Homo sapiens, UniProt P32239); assay: Competition binding against [125I][I-Tyr12,Leu15]gastrin-17 in HEK293-CCK2i4svR cell membranes; settings: vs [125I][I-Tyr12,Leu15]gastrin-17, HEK293-CCK2i4svR cell membranes, 1 h 22 °C; mean ± SD
T1 construct: expressed in transfected cells; membrane homogenates
T1 sequence (P32239 1-516 isoform P32239-2): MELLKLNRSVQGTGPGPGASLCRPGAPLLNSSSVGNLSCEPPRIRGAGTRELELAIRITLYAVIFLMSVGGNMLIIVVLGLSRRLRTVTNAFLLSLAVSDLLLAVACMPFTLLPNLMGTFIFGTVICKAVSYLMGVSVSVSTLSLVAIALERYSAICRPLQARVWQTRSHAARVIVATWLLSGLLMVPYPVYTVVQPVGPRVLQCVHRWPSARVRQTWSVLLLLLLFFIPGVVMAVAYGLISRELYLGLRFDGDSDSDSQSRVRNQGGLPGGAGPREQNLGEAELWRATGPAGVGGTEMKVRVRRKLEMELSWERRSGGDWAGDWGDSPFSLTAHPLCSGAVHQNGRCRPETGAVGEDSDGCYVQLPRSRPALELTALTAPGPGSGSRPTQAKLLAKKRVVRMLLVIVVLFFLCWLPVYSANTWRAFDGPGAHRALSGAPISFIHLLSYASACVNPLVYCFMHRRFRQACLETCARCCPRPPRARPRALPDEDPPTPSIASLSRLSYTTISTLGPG
Protocol: Competition binding assays for the metal-free GAS1/2/3 and the corresponding metal-tagged [^natGa]Ga/[^natIn]In/[^natLu]Lu-GAS1/3 and [^natGa]Ga/[^natIn]In-GAS2 analogs were conducted against the [^125I][I-Tyr^12,Leu^15]gastrin-17 radioligand in membrane homogenates harvested from HEK293-CCK2i4svR cells, as previously described. Briefly, each of the above analogs, or unmodified Z360 serving as control, was incubated in triplicates of increasing concentrations (10^−13–10^−6 M) with [^125I][I-Tyr^12,Leu^15]gastrin-17 (50 pM, ≈40,000 cpm) and membrane homogenate in binding buffer (300 µL, pH 7.4, 50 mM HEPES, 1% BSA, 5.5 mM MgCl2, 35 µM bacitracin) for 1 h at 22 °C. Incubation was interrupted by rapid filtration through glass fiber filters (Whatman GF/B, presoaked in binding buffer for at least 1 h) on a Brandel Cell Harvester (Adi Hassel Ingenieur Büro, Munich, Germany) and subsequent rinsing with ice-cold washing buffer (10 mM HEPES pH 7.4, 150 mM NaCl). The radioactivity content of individual filters was measured in a gamma counter (automated multi-sample well-type instrument with a NaI(Tl) 3′ crystal, Canberra Packard Cobra^TM Quantum U5003/1, Auto-Gamma® counting system). The 50% inhibitory concentration (IC50) was determined by nonlinear regression analysis according to a one-site model using PRISM 6 (Graph Pad Software, San Diego, CA, USA). Values are expressed as mean ± standard deviation (SD) of three independent experiments performed in triplicate.

[2] = system: HEK293-CCK2i4svR cells; assay: Radioligand uptake and internalization in HEK293-CCK2i4svR cells; format: cell-based, human; settings: 1 h 37 °C, specific, of total added activity
Protocol: A day before the experiment, HEK293-CCK2i4svR cells were seeded in six-well plates. The next day, cells were rinsed with ice-cold internalization medium (IM: DMEM Glutamax-I, supplemented by 1% (v/v) FBS) and then the fresh medium was added (1.2 mL) at 37 °C. A further portion of IM (150 µL) was added in the upper well-row, and DG2 solution in IM (150 µL) was added in the lower row (to a final concentration of 1 μM; non-specific series). Each of the test radioligands, [^67Ga]Ga/[^111In]In/[^177Lu]Lu-GAS1/3 and [^67Ga]Ga/[^111In]In-GAS2, was finally added (250 fmol total conjugates in 150 μL 0.5% BSA-PBS) in all the wells and the plates were incubated at for 1 h at 37 °C in an Incubator-Orbital Shaker unit (MPM Instr. SrI, Bernareggio, MI, Italy); [^111In]In-GAS1/2/3 were incubated for 15 min, 30 min, 1 h and 2 h. At the predetermined time points, the plates were placed on ice, the medium was collected, and the plates were rinsed with 0.5% BSA-PBS (1 mL). Cells were subsequently treated with an acid-wash solution (2 × 600 µL; 50 mM glycine buffer pH 2.8, 0.1 M NaCl) and the fractions collected (membrane-bound). After briefly washing with 0.5% BSA-PBS (1 mL), the cells were lysed with 1 N NaOH (2 × 600 µL), and the fractions were collected (internalized). The radioactivity content of collected fractions was counted in the gamma counter, and the percentage of internalized and membrane-bound fractions per time point were calculated with Microsoft Excel. Specific internalized and membrane-bound counts were determined by subtracting the respective non-specific (in the presence of 1 μM DG2) from the respective total counts. Results represent specific internalized/membrane bound ± SD of total added radioactivity per well from three experiments performed in triplicate.

[3] = system: SCID mice bearing twin HEK293-CCK2i4svR and wtHEK293 tumors; assay: Biodistribution in SCID mice bearing twin HEK293-CCK2i4svR and wtHEK293 xenografts; format: in vivo
Protocol: Inocula containing a suspension of freshly harvested HEK293-CCK2i4svR/wtHEK293 cells (150 μL, 1.8 × 10^7/1.4 × 10^7 cells, respectively, in normal saline) were subcutaneously (sc) injected in the right and left flanks of male SCID mice (24.5 ± 2.3 g body weight, six weeks of age on arrival day, NCSR “Demokritos” Animal House Facility). Well-palpable tumors (0.42 ± 0.37/0.25 ± […], respectively) were grown at the inoculation site 3–4 weeks later, and biodistribution was conducted. On the day of biodistribution, animals were divided into groups of four and received the radioligand through the tail vein as a bolus (100 μL, containing each of: i. 78–91 kBq [^67Ga]GAS1/2/3 corresponding to 7–17 pmol GAS1/2/3; ii. 74–92 kBq [^111In]GAS1/2/3 corresponding to 20–25 pmol GAS1/2/3; iii. 730 kBq [^177Lu]Lu-GAS1/3 corresponding to 40 pmol GAS1/3, in-vehicle: saline/EtOH 9/1 v/v). Animals were euthanized at predetermined time intervals depending upon the radionuclide applied (for [^67Ga]Ga-GAS1/2/3: 1, 4 and 24 h pi; for [^111In]In-GAS1/2/3: 4 and 24 h pi–two extra groups of mice receiving gelofusine together with [^111In]In-GAS1/2 at 4 and 24 h pi were included; and for [^177Lu]Lu-GAS1/3: 4, 24, 48, 72 and 96 h pi). Mice were dissected, and blood samples, organs of interest and tumors were rapidly collected, weighted and counted in the gamma counter. Biodistribution data was calculated as the percentage of the administered dose per gram tissue (%IA/g) with the aid of suitable standards of the administered dose and the Microsoft Excel program. Results are presented as mean % IA/g values ± SD, n = 4 per time point, as determined by the PRISM^TM 6.0 GraphPad software (San Diego, CA, USA).

- IC50 [1]: 53.2 ± 2.7 nM
SMILES: CC(C)(C)C(=O)CN1C(=O)[C@H](NC(=O)Nc2cccc(C(=O)NCCOCCOCCOCCNC(=O)[C@H](CCC(=O)O)NC(=O)CCC(C(=O)[O-])N3CCN(CC(=O)[O-])CCN(CC(=O)[O-])CC3)c2)CN(C2CCCCC2)c2ccccc21.[In+3] (stereo partly drawn) [[^natIn]In-GAS2]

- IC50 [1]: 13.8 ± 2.7 nM
SMILES: CC(C)(C)C(=O)CN1C(=O)[C@H](NC(=O)Nc2cccc(C(=O)NCCOCCOCCOCCNC(=O)[C@H](CCC(=O)O)NC(=O)CN3CCN(CC(=O)[O-])CCN(CC(=O)[O-])CCN(CC(=O)[O-])CC3)c2)CN(C2CCCCC2)c2ccccc21.[Ga+3] [[^natGa]Ga-GAS1]

SMILES: CC(C)(C)C(=O)CN1C(=O)[C@H](NC(=O)Nc2cccc(C(=O)NCCOCCOCCOCCNC(=O)[C@H](CCC(=O)O)NC(=O)CCC(C(=O)O)N3CCN(CC(=O)[O-])CCN(CC(=O)[O-])CCN(CC(=O)[O-])CC3)c2)CN(C2CCCCC2)c2ccccc21.[67Ga+3] (stereo in doubt) [[^67Ga]Ga-GAS3]
- Cell uptake (internalized + membrane-bound) [2]: 4.95 ± 0.51%
- Biodistribution, Blood ([3]; 1 h pi): 8.61 ± 1.17 %IA/g
- Biodistribution, CCK2i4svR(+) Tumor ([3]; 1 h pi): 21.75 ± 4.90 %IA/g
- Biodistribution, CCK2i4svR(-) Tumor ([3]; 1 h pi): 2.52 ± 0.28 %IA/g
- Biodistribution, Femur ([3]; 1 h pi): 1.60 ± 0.31 %IA/g
- Biodistribution, Heart ([3]; 1 h pi): 2.23 ± 0.38 %IA/g
- Biodistribution, Intestines ([3]; 1 h pi): 1.53 ± 0.19 %IA/g
- Biodistribution, Kidneys ([3]; 1 h pi): 9.09 ± 1.51 %IA/g
- Biodistribution, Liver ([3]; 1 h pi): 5.62 ± 0.40 %IA/g
- Biodistribution, Lungs ([3]; 1 h pi): 4.32 ± 0.58 %IA/g
- Biodistribution, Muscle ([3]; 1 h pi): 0.82 ± 0.14 %IA/g
- Biodistribution, Pancreas ([3]; 1 h pi): 2.51 ± 0.22 %IA/g
- Biodistribution, Spleen ([3]; 1 h pi): 1.96 ± 0.13 %IA/g
- Biodistribution, Stomach ([3]; 1 h pi): 1.51 ± 0.13 %IA/g
- Biodistribution, Blood ([3]; 4 h pi): 2.23 ± 0.39 %IA/g
- Biodistribution, CCK2i4svR(+) Tumor ([3]; 4 h pi): 20.39 ± 3.96 %IA/g
- Biodistribution, CCK2i4svR(-) Tumor ([3]; 4 h pi): 1.15 ± 0.18 %IA/g
- Biodistribution, Femur ([3]; 4 h pi): 0.78 ± 0.10 %IA/g
- Biodistribution, Heart ([3]; 4 h pi): 0.76 ± 0.07 %IA/g
- Biodistribution, Intestines ([3]; 4 h pi): 1.59 ± 0.19 %IA/g
- Biodistribution, Kidneys ([3]; 4 h pi): 7.86 ± 0.48 %IA/g
- Biodistribution, Liver ([3]; 4 h pi): 4.97 ± 0.74 %IA/g
- Biodistribution, Muscle ([3]; 4 h pi): 0.25 ± 0.05 %IA/g
- Biodistribution, Pancreas ([3]; 4 h pi): 0.77 ± 0.11 %IA/g
- Biodistribution, Spleen ([3]; 4 h pi): 1.60 ± 0.39 %IA/g
- Biodistribution, Stomach ([3]; 4 h pi): 0.61 ± 0.12 %IA/g
- Biodistribution, Blood ([3]; 24 h pi): 0.14 ± 0.02 %IA/g
- Biodistribution, CCK2i4svR(+) Tumor ([3]; 24 h pi): 5.37 ± 1.00 %IA/g
- Biodistribution, CCK2i4svR(-) Tumor ([3]; 24 h pi): 0.61 ± 0.08 %IA/g
- Biodistribution, Femur ([3]; 24 h pi): 0.52 ± 0.07 %IA/g
- Biodistribution, Heart ([3]; 24 h pi): 0.17 ± 0.02 %IA/g
- Biodistribution, Intestines ([3]; 24 h pi): 0.39 ± 0.06 %IA/g
- Biodistribution, Kidneys ([3]; 24 h pi): 1.98 ± 0.45 %IA/g
- Biodistribution, Liver ([3]; 24 h pi): 2.48 ± 0.34 %IA/g
- Biodistribution, Lungs ([3]; 24 h pi): 2.43 ± 1.04 %IA/g
- Biodistribution, Muscle ([3]; 24 h pi): 0.06± 0.00 %IA/g
- Biodistribution, Pancreas ([3]; 24 h pi): 0.17 ± 0.03 %IA/g
- Biodistribution, Spleen ([3]; 24 h pi): 1.67 ± 0.37 %IA/g
- Biodistribution, Stomach ([3]; 24 h pi): 0.19 ± 0.03 %IA/g
- Background clearance / excretion route ([3]; mouse, in vivo): cleared mainly via the kidneys

- IC50 [1]: 12.4 ± 0.2 nM
SMILES: CC(C)(C)C(=O)CN1C(=O)[C@H](NC(=O)Nc2cccc(C(=O)NCCOCCOCCOCCNC(=O)[C@H](CCC(=O)O)NC(=O)CN3CCN(CC(=O)[O-])CCN(CC(=O)[O-])CCN(CC(=O)[O-])CC3)c2)CN(C2CCCCC2)c2ccccc21.[Lu+3] [[^natLu]Lu-GAS1]

- IC50 [1]: 5 ± 1.1 nM
SMILES: CC(C)(C)C(=O)CN1C(=O)[C@H](NC(=O)Nc2cccc(C(=O)NCCOCCOCCOCCNC(=O)[C@H](CCC(=O)O)NC(=O)CN3CCN(CC(=O)[O-])CCN(CC(=O)[O-])CCN(CC(=O)[O-])CC3)c2)CN(C2CCCCC2)c2ccccc21.[In+3] [[^natIn]In-GAS1]

- IC50 [1]: 8.8 ± 1.6 nM
SMILES: CC(C)(C)C(=O)CN1C(=O)[C@H](NC(=O)Nc2cccc(C(=O)NCCOCCOCCOCCNC(=O)[C@H](CCC(=O)O)NC(=O)CCC(C(=O)[O-])N3CCN(CC(=O)[O-])CCN(CC(=O)[O-])CC3)c2)CN(C2CCCCC2)c2ccccc21.[Ga+3] (stereo partly drawn) [[^natGa]Ga-GAS2]

SMILES: CC(C)(C)C(=O)CN1C(=O)[C@H](NC(=O)Nc2cccc(C(=O)NCCOCCOCCOCCNC(=O)[C@H](CCC(=O)O)NC(=O)CCC(C(=O)O)N3CCN(CC(=O)[O-])CCN(CC(=O)[O-])CCN(CC(=O)[O-])CC3)c2)CN(C2CCCCC2)c2ccccc21.[Ga+3] (stereo partly drawn) [[^natGa]Ga-GAS3]
- IC50 [1]: 4.8 ± 0.6 nM

SMILES: CC(C)(C)C(=O)CN1C(=O)[C@H](NC(=O)Nc2cccc(C(=O)NCCOCCOCCOCCNC(=O)[C@H](CCC(=O)O)NC(=O)CCC(C(=O)O)N3CCN(CC(=O)[O-])CCN(CC(=O)[O-])CCN(CC(=O)[O-])CC3)c2)CN(C2CCCCC2)c2ccccc21.[Lu+3] (stereo partly drawn) [[^natLu]Lu-GAS3]
- IC50 [1]: 4.3 ± 0.9 nM

SMILES: CC(C)(C)C(=O)CN1C(=O)[C@H](NC(=O)Nc2cccc(C(=O)NCCOCCOCCOCCNC(=O)[C@H](CCC(=O)O)NC(=O)CCC(C(=O)O)N3CCN(CC(=O)[O-])CCN(CC(=O)[O-])CCN(CC(=O)[O-])CC3)c2)CN(C2CCCCC2)c2ccccc21.[In+3] (stereo partly drawn) [[^natIn]In-GAS3]
- IC50 [1]: 1.9 ± 0.2 nM
